Data: paper PMC11843331, “Metal-Triggered FAD Reduction in D-2-Hydroxyglutarate Dehydrogenase from Pseudomonas aeruginosa PAO1” (ACS Bio & Med Chem Au, 2024)

Target: T1, PaD2HGDH; Pseudomonas aeruginosa D-2-hydroxyglutarate dehydrogenase (Pseudomonas aeruginosa, UniProt Q9I6H4)
T1 construct: gene PA0317; recombinant from pET20b(+) harboring PA0317 (GenScript), purified to homogeneity; FAD- and Zn2+-containing
T1 sequence (Q9I6H4 1-464): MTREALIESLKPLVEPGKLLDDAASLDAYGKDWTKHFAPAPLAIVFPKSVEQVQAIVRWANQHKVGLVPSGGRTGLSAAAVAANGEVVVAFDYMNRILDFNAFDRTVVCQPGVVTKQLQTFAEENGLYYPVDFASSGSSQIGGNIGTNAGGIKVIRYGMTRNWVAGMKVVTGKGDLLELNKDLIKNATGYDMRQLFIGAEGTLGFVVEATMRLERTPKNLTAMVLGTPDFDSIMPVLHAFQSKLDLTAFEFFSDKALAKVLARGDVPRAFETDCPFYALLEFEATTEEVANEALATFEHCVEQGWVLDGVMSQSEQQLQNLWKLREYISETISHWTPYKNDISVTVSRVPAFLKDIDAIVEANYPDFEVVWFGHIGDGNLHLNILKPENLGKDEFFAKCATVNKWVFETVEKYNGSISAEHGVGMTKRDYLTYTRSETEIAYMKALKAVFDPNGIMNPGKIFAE
Assay: UV-visible absorption of enzyme-bound flavin, anaerobic reduction by D-malate
Type: binding
Conditions: 1 mM ZnCl2, pH 10.0, 25 °C; co-purified bound cofactor

SMILES: Cc1cc2nc3c(=O)[nH]c(=O)nc-3n(C[C@H](O)[C@H](O)[C@H](O)COP(=O)(O)OP(=O)(O)OC[C@H]3O[C@@H](n4cnc5c(N)ncnc54)[C@H](O)[C@@H]3O)c2cc1C [FAD]
- UV-visible absorption of enzyme-bound flavin, anaerobic reduction by D-malate: characteristic properties of a fully reduced PaD2HGDH-bound flavin, as previously reported
